Source: PubChem BioAssay (NCI)
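Exposure lasted 48 hours, with cells grown in 96-well plates and compounds tested at five concentrations. TGI: total growth inhibition.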

Experiments:
Assay in all cases: growth of human tumour cells (NCI), 48 h
MDA-N = test system: MDA-N
BT-549 breast = test system: BT-549 breast
DLD-1 colon = test system: DLD-1 colon
COLO 205 colon = test system: COLO 205 colon
IGROV1 ovarian = test system: IGROV1 ovarian
SR leukemia = test system: SR leukemia
RXF 393 renal = test system: RXF 393 renal
DU-145 prostate = test system: DU-145 prostate
CCRF-CEM leukemia = test system: CCRF-CEM leukemia
KM12 colon = test system: KM12 colon
M19-MEL melanoma = test system: M19-MEL melanoma
DMS 273 small cell lung = test system: DMS 273 small cell lung
TK-10 renal = test system: TK-10 renal
OVCAR-5 ovarian = test system: OVCAR-5 ovarian
NCI-H226 lung = test system: NCI-H226 lung
HCT-15 colon = test system: HCT-15 colon
MALME-3M melanoma = test system: MALME-3M melanoma
RXF-631 renal = test system: RXF-631 renal
HL-60(TB) leukemia = test system: HL-60(TB) leukemia
786-0 renal = test system: 786-0 renal
UACC-62 melanoma = test system: UACC-62 melanoma
PC-3 prostate = test system: PC-3 prostate
MOLT-4 leukemia = test system: MOLT-4 leukemia
HS 578T breast = test system: HS 578T breast
SK-MEL-28 melanoma = test system: SK-MEL-28 melanoma
NCI-H522 lung = test system: NCI-H522 lung
UACC-257 melanoma = test system: UACC-257 melanoma
HOP-62 NSCLC = test system: HOP-62 NSCLC
SK-MEL-2 melanoma = test system: SK-MEL-2 melanoma
NCI-H23 lung = test system: NCI-H23 lung
LXFL 529 NSCLC = test system: LXFL 529 NSCLC
DMS 114 small cell lung = test system: DMS 114 small cell lung
SK-OV-3 ovarian = test system: SK-OV-3 ovarian
MCF7 breast = test system: MCF7 breast
OVCAR-3 ovarian = test system: OVCAR-3 ovarian
HCT-116 colon = test system: HCT-116 colon
MDA-MB-231 breast = test system: MDA-MB-231 breast
LOX IMVI melanoma = test system: LOX IMVI melanoma
HCC-2998 colon = test system: HCC-2998 colon
SNB-19 CNS = test system: SNB-19 CNS
SN12C renal = test system: SN12C renal
U251 CNS = test system: U251 CNS
HOP-18 NSCLC = test system: HOP-18 NSCLC
A549 NSCLC = test system: A549 NSCLC
OVCAR-4 ovarian = test system: OVCAR-4 ovarian
OVCAR-8 ovarian = test system: OVCAR-8 ovarian
SNB-75 CNS = test system: SNB-75 CNS
CAKI-1 renal = test system: CAKI-1 renal
NCI/ADR-RES ovarian = test system: NCI/ADR-RES ovarian
HOP-92 NSCLC = test system: HOP-92 NSCLC
SF-539 CNS = test system: SF-539 CNS
SF-268 CNS = test system: SF-268 CNS
RPMI-8226 leukemia = test system: RPMI-8226 leukemia
SW-620 colon = test system: SW-620 colon
SK-MEL-5 melanoma = test system: SK-MEL-5 melanoma
ACHN renal = test system: ACHN renal
KM20L2 colon = test system: KM20L2 colon
A498 renal = test system: A498 renal
M14 melanoma = test system: M14 melanoma
SF-295 CNS = test system: SF-295 CNS
NCI-H460 lung = test system: NCI-H460 lung
MDA-MB-435 = test system: MDA-MB-435
HT29 colon = test system: HT29 colon
XF 498 CNS = test system: XF 498 CNS
EKVX NSCLC = test system: EKVX NSCLC
UO-31 renal = test system: UO-31 renal
SNB-78 CNS = test system: SNB-78 CNS
T-47D breast = test system: T-47D breast
K-562 leukemia = test system: K-562 leukemia

O=C(CC1(O)C(=O)Nc2c(Cl)ccc(Cl)c21)c1ccco1 (configuration not stated)
TGI (MDA-N): 12.8 µM
TGI (BT-549 breast): > 100 µM
TGI (DLD-1 colon): > 100 µM
TGI (COLO 205 colon): 33 µM
TGI (IGROV1 ovarian): 40 µM
TGI (SR leukemia): 14.8 µM
TGI (RXF 393 renal): 43.2 µM
TGI (DU-145 prostate): > 100 µM
TGI (CCRF-CEM leukemia): 26.9 µM
TGI (KM12 colon): > 78.3 µM
TGI (M19-MEL melanoma): 5.33 µM
TGI (DMS 273 small cell lung): > 100 µM
TGI (TK-10 renal): > 81.6 µM
TGI (OVCAR-5 ovarian): 38.7 µM
TGI (NCI-H226 lung): 47.5 µM
TGI (HCT-15 colon): > 70.2 µM
TGI (MALME-3M melanoma): 34.7 µM
TGI (RXF-631 renal): 65.3 µM
TGI (HL-60(TB) leukemia): 35.1 µM
TGI (786-0 renal): 46.8 µM
TGI (UACC-62 melanoma): 19.3 µM
TGI (PC-3 prostate): > 100 µM
TGI (MOLT-4 leukemia): 61 µM
TGI (HS 578T breast): 71.5 µM
TGI (SK-MEL-28 melanoma): 38.2 µM
TGI (NCI-H522 lung): > 100 µM
TGI (UACC-257 melanoma): 40.1 µM
TGI (HOP-62 NSCLC): 66.2 µM
TGI (SK-MEL-2 melanoma): > 69.2 µM
TGI (NCI-H23 lung): 34 µM
TGI (LXFL 529 NSCLC): 27.4 µM
TGI (DMS 114 small cell lung): 33.5 µM
TGI (SK-OV-3 ovarian): > 74.3 µM
TGI (MCF7 breast): 39.5 µM
TGI (OVCAR-3 ovarian): 18.7 µM
TGI (HCT-116 colon): 32.4 µM
TGI (MDA-MB-231 breast): 48.7 µM
TGI (LOX IMVI melanoma): 29.4 µM
TGI (HCC-2998 colon): > 88.5 µM
TGI (SNB-19 CNS): > 100 µM
TGI (SN12C renal): 31.8 µM
TGI (U251 CNS): > 74.4 µM
TGI (HOP-18 NSCLC): > 100 µM
TGI (A549 NSCLC): 49.9 µM
TGI (OVCAR-4 ovarian): 24.5 µM
TGI (OVCAR-8 ovarian): > 73.8 µM
TGI (SNB-75 CNS): 71.7 µM
TGI (CAKI-1 renal): > 72.3 µM
TGI (NCI/ADR-RES ovarian): 74.1 µM
TGI (HOP-92 NSCLC): 49.8 µM
TGI (SF-539 CNS): 59.7 µM
TGI (SF-268 CNS): > 84.2 µM
TGI (RPMI-8226 leukemia): 40.8 µM
TGI (SW-620 colon): 56.4 µM
TGI (SK-MEL-5 melanoma): 31.7 µM
TGI (ACHN renal): 38.6 µM
TGI (KM20L2 colon): > 100 µM
TGI (A498 renal): 64 µM
TGI (M14 melanoma): 27.8 µM
TGI (SF-295 CNS): 40.9 µM
TGI (NCI-H460 lung): 45.6 µM
TGI (MDA-MB-435): 3.44 µM
TGI (HT29 colon): > 93.4 µM
TGI (XF 498 CNS): 24.2 µM
TGI (EKVX NSCLC): 50.5 µM
TGI (UO-31 renal): 54.9 µM
TGI (SNB-78 CNS): > 100 µM
TGI (T-47D breast): 72.9 µM

CCN(CC)CCNc1ccc2nnn3c4ccc([N+](=O)[O-])cc4c(=O)c1c23
TGI (MDA-N): > 100 µM
TGI (BT-549 breast): > 100 µM
TGI (DLD-1 colon): > 70.1 µM
TGI (COLO 205 colon): > 100 µM
TGI (IGROV1 ovarian): > 100 µM
TGI (SR leukemia): > 33.6 µM
TGI (RXF 393 renal): 18.9 µM
TGI (DU-145 prostate): > 100 µM
TGI (CCRF-CEM leukemia): 44.3 µM
TGI (KM12 colon): > 100 µM
TGI (M19-MEL melanoma): > 100 µM
TGI (DMS 273 small cell lung): 23.5 µM
TGI (TK-10 renal): > 45 µM
TGI (OVCAR-5 ovarian): 65.1 µM
TGI (NCI-H226 lung): 17 µM
TGI (HCT-15 colon): > 61 µM
TGI (MALME-3M melanoma): 62.9 µM
TGI (RXF-631 renal): 28.2 µM
TGI (HL-60(TB) leukemia): 30.2 µM
TGI (786-0 renal): 18.5 µM
TGI (UACC-62 melanoma): > 100 µM
TGI (PC-3 prostate): > 100 µM
TGI (MOLT-4 leukemia): 32 µM
TGI (HS 578T breast): 73.8 µM
TGI (SK-MEL-28 melanoma): 51.1 µM
TGI (NCI-H522 lung): > 100 µM
TGI (UACC-257 melanoma): > 69.4 µM
TGI (HOP-62 NSCLC): > 71.3 µM
TGI (SK-MEL-2 melanoma): > 71.7 µM
TGI (NCI-H23 lung): 98.5 µM
TGI (LXFL 529 NSCLC): > 96.1 µM
TGI (K-562 leukemia): 32.8 µM
TGI (DMS 114 small cell lung): 97.3 µM
TGI (SK-OV-3 ovarian): > 100 µM
TGI (MCF7 breast): > 100 µM
TGI (OVCAR-3 ovarian): > 100 µM
TGI (HCT-116 colon): 19.7 µM
TGI (MDA-MB-231 breast): 24.4 µM
TGI (LOX IMVI melanoma): 17.9 µM
TGI (HCC-2998 colon): > 100 µM
TGI (SNB-19 CNS): > 100 µM
TGI (SN12C renal): > 83.6 µM
TGI (U251 CNS): 13 µM
TGI (HOP-18 NSCLC): > 100 µM
TGI (A549 NSCLC): > 53.2 µM
TGI (OVCAR-4 ovarian): 48.9 µM
TGI (OVCAR-8 ovarian): 16 µM
TGI (SNB-75 CNS): 42 µM
TGI (CAKI-1 renal): 27.3 µM
TGI (NCI/ADR-RES ovarian): 30.7 µM
TGI (HOP-92 NSCLC): 40.6 µM
TGI (SF-539 CNS): 14.9 µM
TGI (SF-268 CNS): > 100 µM
TGI (RPMI-8226 leukemia): 43.1 µM
TGI (SW-620 colon): 27.6 µM
TGI (SK-MEL-5 melanoma): 58.7 µM
TGI (ACHN renal): 55.9 µM
TGI (KM20L2 colon): > 100 µM
TGI (A498 renal): 23.8 µM
TGI (M14 melanoma): 49.7 µM
TGI (SF-295 CNS): > 78.4 µM
TGI (NCI-H460 lung): > 26.9 µM
TGI (MDA-MB-435): > 100 µM
TGI (HT29 colon): > 55.5 µM
TGI (XF 498 CNS): 18.3 µM
TGI (EKVX NSCLC): > 89.7 µM
TGI (UO-31 renal): 25 µM
TGI (SNB-78 CNS): 63.8 µM
TGI (T-47D breast): > 100 µM
